Legend:
CXCR3 [1] = molecular target: T1, CXCR3 (Homo sapiens, UniProt P49682); experiment: biochemical; type: binding; parameters: expressed in transfected cells; host or cells: CHO cells (membrane preparation)
T1 sequence (P49682 1-368): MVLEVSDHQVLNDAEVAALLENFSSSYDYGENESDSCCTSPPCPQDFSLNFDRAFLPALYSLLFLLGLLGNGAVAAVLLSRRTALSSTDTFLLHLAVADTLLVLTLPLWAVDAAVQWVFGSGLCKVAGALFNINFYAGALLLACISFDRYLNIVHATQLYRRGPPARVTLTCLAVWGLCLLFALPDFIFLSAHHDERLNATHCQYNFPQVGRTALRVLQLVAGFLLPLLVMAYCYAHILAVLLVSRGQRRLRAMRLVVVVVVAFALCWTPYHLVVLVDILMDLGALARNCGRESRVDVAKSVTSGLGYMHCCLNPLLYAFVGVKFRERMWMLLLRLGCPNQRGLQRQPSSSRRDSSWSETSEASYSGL
Description: a) CXCR3 Membrane Binding Assay
A ligand binding assay is used to identify inhibitors of I-TAC binding to CXCR3 expressing membranes. Cell membranes are prepared from CHO cells transfected with human CXCR3. The binding of the ^125I labeled CXCR3 ligand e.g. I-TAC (CXCL11) to CXCR3 is assessed using the Scintillation Proximity Assay (SPA) technology (Amersham Pharmacia Biotech). Buffer or serial dilutions of compound are incubated for 2 hours at room temperature with labeled CXCR3 ligand (e.g. I-TAC), CXCR3 expressing membranes and WGA coated PVT beads. The plates are then centrifuged and counted in a Topcount (Packard) instrument. The data are reported as the concentration of compound required to achieve 50% inhibition of ^125I ligand binding.

CXCR3 [2] = molecular target: T1, CXCR3; experiment: cell-based; parameters: expressed in transfected cells; host or cells: L1.2 cells (mouse pre-B cell line)
Description: b) CXCR3 Functional Assay—Ca^2+ Mobilization
CXCR3 ligand-induced Ca^2+ mobilization is assessed in CXCR3 transfected L1.2 cells (a mouse pre B cell line). For this, cells are loaded with the Ca^2+-sensitive fluorochrome Fluo-4 (Molecular Probes). After washing, the cells are pre-incubated with low molecular weight inhibitors for 2 h at room temperature. The transient increase in intracellular Ca^2+ after the addition of the CXCR3 ligand (e.g. I-TAC) is monitored in a fluorescence image plate reader (FLIPR) instrument. The inhibition of CXCR3 ligand induced Ca^2+ mobilization in the presence of CXCR3 antagonists is reported as IC50 values i.e. the concentration of compound which reduces the maximal Ca^2+ response to 50%.

CXCR3 [3] = molecular target: T1, CXCR3; experiment: CXCR3 functional assay - chemotaxis; type: cell-based; parameters: expressed in transfected cells; host or cells: L1.2 cells (mouse pre-B cell line); details: CXCR3 transfected L-1.2 cells; I-TAC; 4 h at 37° C.; read-out: IC50, concentration which leads to a reduction of migrated cells by 50%
Description: c) CXCR3 Functional Assay—Chemotaxis
The directed cell migration induced by CXCR3 ligands e.g. I-TAC is assessed using 96-well disposable chemotaxis chambers (Multiscreen MIC, Costar) with polycarbonate membranes containing pores of 5 μm diameter. Chemokine (e.g. I-TAC) is placed in the bottom well of the chamber and cells (e.g. CXCR3 transfected L-1.2 cells) are placed in the top compartment of the chemotaxis chamber. Cell migration across the porous membrane is allowed for 4 h at 37° C. Cells migrated from the top compartment to the bottom compartment are quantified by flow cytometry. When LMW inhibitors are tested, compounds are added to both compartments at the identical concentrations; Serial dilutions of compounds are tested to assess their inhibitory effect on CXCR3 dependent cell migration. The concentration of LMW CXCR3 inhibitors which leads to a reduction of migrated cells by 50% is reported as IC50. In this assay, the compounds of formula I have an IC50 value from 1 μM-1 nM.

[4] = membranes of CHO cells transfected with human CXCR3, 125I I-TAC (CXCL11), 2 hours at room temperature, read-out: IC50, concentration of compound required to achieve 50% inhibition of 125I ligand binding
[5] = CXCR3 transfected L1.2 cells (mouse pre B cell line), CXCR3 ligand (e.g. I-TAC), pre-incubation 2 h at room temperature, read-out: IC50, concentration of compound which reduces the maximal Ca2+ response to 50%

| SMILES | IC50 (CXCR3 [1]) [nM] | IC50 (CXCR3 [2]) [nM] | IC50 (CXCR3 [1]; [4]) [nM] | IC50 (CXCR3 [2]; [5]) [nM] | IC50 (CXCR3 [3]) [nM] |
| --- | --- | --- | --- | --- | --- |
| CC(C)OC(=O)Cn1cc2c3c(cccc31)C1=C[C@@H](C(=O)N3CCCC3)CN(C(=O)Nc3ccccc3)[C@@H]1C2 [Example 79, [(6aR,9R)-7-Phenylcarbamoyl-9-(pyrrolidine-1-carbonyl)-6a,7,8,9-tetrahydro-6H-indolo[4,3-fg]quinolin-4-yl]-acetic acid isopropyl ester] | 145 | 53 |  |  |  |
| O=C([C@@H]1C=C2c3cccc4[nH]cc(c34)C[C@H]2N(C(=O)Nc2ccccc2F)C1)N1CCCC1 [Example 59] |  |  | 43 | 20 |  |
| O=C([C@@H]1C=C2c3cccc4[nH]cc(c34)C[C@H]2N(C(=O)Nc2ccccc2)C1)N1CCC1 [Example 23] |  |  | 61 | 8 |  |
| O=C([C@@H]1C=C2c3cccc4[nH]cc(c34)C[C@H]2N(C(=O)Nc2ccccc2)C1)N1CCOCC1 [Example 43] | 23 | 16 |  |  | 75 |

Reference: US7666877B2, “Ergoline derivatives” (priority 2005, dated 2010)
